Measurements published in patent US10517889B2, “Modulators of SMAD7 expression” (Ionis Pharmaceuticals, Inc., priority 2017, dated 2019).
Strand notation (5' to 3'): a small letter for the sugar, then the base; units joined by * are phosphorothioate-linked, units joined directly phosphodiester-linked; [ ] holds rarer units or linkages, { } end groups; capitals alone tell only the bases. k = constrained ethyl (cEt); [5mC] = 5-methylcytosine; d = 2'-deoxy (DNA)

tested on: human SMAD7 mRNA; assay: Antisense inhibition of human SMAD7 mRNA expression in Hep3B cells by 3-10-3 cEt gapmers, 10,000 nM, electroporation (Example 2); format: cell-based; conditions: Hep3B cells, electroporation with 10,000 nM antisense oligonucleotide, approximately 24 hours, SMAD7 mRNA by RT-PCR (RTS5062), relative to untreated control cells
Procedure, shortened: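 qRT-PCR (RTS5062) of SMAD7 mRNA, normalised to RIBOGREEN total RNA, gave percent inhibition relative to untreated controls. Hep3B cells at 20,000 per well received 10,000 nM oligonucleotide by electroporation, with ~24 h treatment.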

Substance	% Inhibition
830064 (kA*kT*kG*dG*dT*dG*d[5mC]*dT*d[5mC]*dT*dG*d[5mC]*d[5mC]*k[5mC]*kT*kT; antisense) [compound 830064]	29%
830065 (kA*kA*kT*dG*dG*dT*dG*d[5mC]*dT*d[5mC]*dT*dG*d[5mC]*k[5mC]*k[5mC]*kT; antisense) [compound 830065]	43%
830066 (kA*kA*kA*dT*dG*dG*dT*dG*d[5mC]*dT*d[5mC]*dT*dG*k[5mC]*k[5mC]*k[5mC]; antisense) [compound 830066]	37%
830068 (kG*kT*kG*dA*dA*dA*dT*dG*dG*dT*dG*d[5mC]*dT*k[5mC]*kT*kG; antisense) [compound 830068]	39%
830069 (kA*kA*kG*dG*dT*dA*dA*dG*d[5mC]*d[5mC]*dA*dG*d[5mC]*kT*k[5mC]*k[5mC]; antisense) [compound 830069]	51%
830070 (kA*kA*kA*dG*dG*dT*dA*dA*dG*d[5mC]*d[5mC]*dA*dG*k[5mC]*kT*k[5mC]; antisense) [compound 830070]	44%
830071 (kT*k[5mC]*kA*dA*dA*dG*dG*dT*dA*dA*dG*d[5mC]*d[5mC]*kA*kG*k[5mC]; antisense) [compound 830071]	45%
830072 (kA*kT*k[5mC]*dA*dA*dA*dG*dG*dT*dA*dA*dG*d[5mC]*k[5mC]*kA*kG; antisense) [compound 830072]	28%
830073 (kT*k[5mC]*kA*dG*dA*dT*d[5mC]*dA*dA*dA*dG*dG*dT*kA*kA*kG; antisense) [compound 830073]	41%
830074 (k[5mC]*kT*k[5mC]*dA*dG*dA*dT*d[5mC]*dA*dA*dA*dG*dG*kT*kA*kA; antisense) [compound 830074]	43%
830075 (kT*k[5mC]*kA*dG*dG*dG*dT*dG*dT*d[5mC]*dA*dG*d[5mC]*k[5mC]*k[5mC]*kA; antisense) [compound 830075]	39%
830076 (k[5mC]*kA*k[5mC]*dA*dT*dT*d[5mC]*dA*dG*dG*dG*dT*dG*kT*k[5mC]*kA; antisense) [compound 830076]	43%
830077 (k[5mC]*k[5mC]*kA*d[5mC]*dA*dT*dT*d[5mC]*dA*dG*dG*dG*dT*kG*kT*k[5mC]; antisense) [compound 830077]	37%
830078 (kA*k[5mC]*k[5mC]*dA*d[5mC]*dA*dT*dT*d[5mC]*dA*dG*dG*dG*kT*kG*kT; antisense) [compound 830078]	0%
830079 (kA*kT*kA*d[5mC]*d[5mC]*d[5mC]*dT*dG*d[5mC]*dA*d[5mC]*dT*dT*kT*k[5mC]*kT; antisense) [compound 830079]	22%
830080 (kT*kA*kT*dA*d[5mC]*d[5mC]*d[5mC]*dT*dG*d[5mC]*dA*d[5mC]*dT*kT*kT*k[5mC]; antisense) [compound 830080]	32%
830081 (kG*kT*kG*dT*dA*dT*dA*d[5mC]*d[5mC]*d[5mC]*dT*dG*d[5mC]*kA*k[5mC]*kT; antisense) [compound 830081]	0%
830082 (kG*kG*kT*dG*dT*dA*dT*dA*d[5mC]*d[5mC]*d[5mC]*dT*dG*k[5mC]*kA*k[5mC]; antisense) [compound 830082]	34%
830083 (kA*kT*kG*dG*dT*dG*dT*dA*dT*dA*d[5mC]*d[5mC]*d[5mC]*kT*kG*k[5mC]; antisense) [compound 830083]	54%
830084 (kG*kA*kT*dA*d[5mC]*dA*d[5mC]*dT*dT*dA*dA*dT*d[5mC]*kA*kA*kA; antisense) [compound 830084]	26%

Substance	% Inhibition
830085 (k[5mC]*kA*kG*dG*dA*dT*dA*d[5mC]*dA*d[5mC]*dT*dT*dA*kA*kT*k[5mC]; antisense) [compound 830085]	27%
830086 (kT*kT*kT*dA*d[5mC]*dA*dG*dG*dA*dT*dA*d[5mC]*dA*k[5mC]*kT*kT; antisense) [compound 830086]	40%
830087 (kT*kT*kT*dT*dA*d[5mC]*dA*dG*dG*dA*dT*dA*d[5mC]*kA*k[5mC]*kT; antisense) [compound 830087]	35%
830088 (kG*kT*kT*dT*dT*dA*d[5mC]*dA*dG*dG*dA*dT*dA*k[5mC]*kA*k[5mC]; antisense) [compound 830088]	52%
830089 (kA*kA*kG*dA*d[5mC]*d[5mC]*d[5mC]*dT*dG*dT*dA*dA*dG*k[5mC]*kT*kT; antisense) [compound 830089]	9%
830090 (kA*kT*kA*d[5mC]*dA*d[5mC]*dA*dA*dG*dA*d[5mC]*d[5mC]*d[5mC]*kT*kG*kT; antisense) [compound 830090]	10%
830091 (kA*kA*kT*dA*d[5mC]*dA*d[5mC]*dA*dA*dG*dA*d[5mC]*d[5mC]*k[5mC]*kT*kG; antisense) [compound 830091]	37%
830092 (kA*kT*kT*dA*dG*dT*d[5mC]*d[5mC]*d[5mC]*dA*dT*dG*dA*kA*kA*k[5mC]; antisense) [compound 830092]	43%
830093 (k[5mC]*kT*k[5mC]*dA*dT*dT*dA*dG*dT*d[5mC]*d[5mC]*d[5mC]*dA*kT*kG*kA; antisense) [compound 830093]	5%
830094 (kT*k[5mC]*kT*dT*dA*d[5mC]*d[5mC]*dT*dG*dA*dA*dA*dG*k[5mC]*k[5mC]*k[5mC]; antisense) [compound 830094]	30%
830096 (kA*kA*k[5mC]*dA*dA*d[5mC]*dA*dT*d[5mC]*d[5mC]*dT*dG*dA*kG*k[5mC]*kG; antisense) [compound 830096]	44%
830098 (kA*kG*kA*d[5mC]*dA*dA*dA*d[5mC]*d[5mC]*dT*dT*d[5mC]*d[5mC]*kG*kA*kA; antisense) [compound 830098]	37%
830101 (kG*k[5mC]*k[5mC]*d[5mC]*dG*d[5mC]*dT*d[5mC]*dT*d[5mC]*dA*dG*d[5mC]*k[5mC]*kA*kG; antisense) [compound 830101]	46%
830102 (kA*kG*k[5mC]*d[5mC]*d[5mC]*dG*d[5mC]*dT*d[5mC]*dT*d[5mC]*dA*dG*k[5mC]*k[5mC]*kA; antisense) [compound 830102]	43%
830103 (kA*kA*kG*d[5mC]*d[5mC]*d[5mC]*dG*d[5mC]*dT*d[5mC]*dT*d[5mC]*dA*kG*k[5mC]*k[5mC]; antisense) [compound 830103]	39%
830104 (kT*kA*kA*dG*d[5mC]*d[5mC]*d[5mC]*dG*d[5mC]*dT*d[5mC]*dT*d[5mC]*kA*kG*k[5mC]; antisense) [compound 830104]	28%
830105 (kT*kT*kA*dA*dG*d[5mC]*d[5mC]*d[5mC]*dG*d[5mC]*dT*d[5mC]*dT*k[5mC]*kA*kG; antisense) [compound 830105]	48%
830106 (k[5mC]*kA*kT*dT*dA*dA*dG*d[5mC]*d[5mC]*d[5mC]*dG*d[5mC]*dT*k[5mC]*kT*k[5mC]; antisense) [compound 830106]	33%
830107 (kT*k[5mC]*kA*dT*dT*dA*dA*dG*d[5mC]*d[5mC]*d[5mC]*dG*d[5mC]*kT*k[5mC]*kT; antisense) [compound 830107]	50%
